Source: US8637557B2, “Aminothiazole derivative” (Taisho Pharmaceutical Co., Ltd, priority 2009, dated 2014)
Like-named read-outs stand apart in the source and are kept apart here.

Target: T1, human PI 3-kinase p120γ (Homo sapiens, UniProt P48736)
T1 construct: purchased Millipore Corporation
Assay: PI 3-kinase p120γ enzyme activity inhibition test
Type: biochemical
Settings: ATP 10.0 μM, PIP2-PS 5.0 μM, 30° C., 2 hours
Description: Using human PI 3-kinase p120γ (manufactured by Millipore Corporation) and a mixed micellized product (hereinafter abbreviated as PIP2-PS) of the substrate thereof, L-a-Phosphatidyl-D-myo-inositol-4,5-bisphosphate (product of Calbiochem, hereinafter abbreviated as PIP2), and L-a-Phosphatidyl-L-Serine (manufactured by Sigma, hereinafter abbreviated as PS), the compound of the present invention was examined for the inhibitory action on PI3 Kinase p120γ enzyme activity (Km=8.9 μM for ATP, Km=4.0 μM for PIP2-PS).
PIP2-PS was prepared by mixing 500 μM of PIP2 and 2.5 nM of PS and sonicating the mixture for 40 minutes while ice cooling to cause micellization. ATP (final concentration 10.0 μM), [γ-^33P] ATP (final concentration 10 μCi/ml), PIP2-PS (final concentration 5.0 μM) and DMSO solutions of the test compound in different concentrations (compound final concentration 1.0×10^−5 to 2.4×10^−12 M, DMSO final concentration 0.1%) were added to PI 3-kinase p120γ, stirred and reacted at 30° C. for 2 hours. Using Phospholipid-Coated FlashPlate Microplates, 96-Well and Phospholipid FlashPlate Coating Buffer (both manufactured by PerkinElmer Co., Ltd.), PIP2-PS and phosphorylated PIP2-PS were allowed to be adsorbed to the well wall of the plate and collected. The well was washed twice with PBS (Phosphate-Buffered Saline) and dried. The radioactivity was measured using Top Count NXT (manufactured by PerkinElmer Co., Ltd.), whereby the phosphorylated amount (a) of PIP2-PS at the time of compound addition was calculated.
The same procedure was carried out in the absence of the test compound and the phosphorylated amount (b) of PIP2-PS was calculated. Further, the same procedure was carried out in the absence of both of the substrate and the test compound, and the PIP2-PS phosphorylated amount (c) of the background was calculated.
The PI3 Kinase p120γ enzyme activity suppression rate of the compound was calculated by the following formula. Suppression rate (%)=[1−(a−c)/(b−c)]×100
More specifically, using the suppression rate by the test compound of different concentrations, the IC50 value was calculated according to the dose-dependent inhibition curve analyzed by a data analysis software Origin (Lightstone Corp.) and used as the inhibitory activity index.

[1] = read-out: PI3Kγ (IC50 value class)

T1 sequence (P48736 whole entry): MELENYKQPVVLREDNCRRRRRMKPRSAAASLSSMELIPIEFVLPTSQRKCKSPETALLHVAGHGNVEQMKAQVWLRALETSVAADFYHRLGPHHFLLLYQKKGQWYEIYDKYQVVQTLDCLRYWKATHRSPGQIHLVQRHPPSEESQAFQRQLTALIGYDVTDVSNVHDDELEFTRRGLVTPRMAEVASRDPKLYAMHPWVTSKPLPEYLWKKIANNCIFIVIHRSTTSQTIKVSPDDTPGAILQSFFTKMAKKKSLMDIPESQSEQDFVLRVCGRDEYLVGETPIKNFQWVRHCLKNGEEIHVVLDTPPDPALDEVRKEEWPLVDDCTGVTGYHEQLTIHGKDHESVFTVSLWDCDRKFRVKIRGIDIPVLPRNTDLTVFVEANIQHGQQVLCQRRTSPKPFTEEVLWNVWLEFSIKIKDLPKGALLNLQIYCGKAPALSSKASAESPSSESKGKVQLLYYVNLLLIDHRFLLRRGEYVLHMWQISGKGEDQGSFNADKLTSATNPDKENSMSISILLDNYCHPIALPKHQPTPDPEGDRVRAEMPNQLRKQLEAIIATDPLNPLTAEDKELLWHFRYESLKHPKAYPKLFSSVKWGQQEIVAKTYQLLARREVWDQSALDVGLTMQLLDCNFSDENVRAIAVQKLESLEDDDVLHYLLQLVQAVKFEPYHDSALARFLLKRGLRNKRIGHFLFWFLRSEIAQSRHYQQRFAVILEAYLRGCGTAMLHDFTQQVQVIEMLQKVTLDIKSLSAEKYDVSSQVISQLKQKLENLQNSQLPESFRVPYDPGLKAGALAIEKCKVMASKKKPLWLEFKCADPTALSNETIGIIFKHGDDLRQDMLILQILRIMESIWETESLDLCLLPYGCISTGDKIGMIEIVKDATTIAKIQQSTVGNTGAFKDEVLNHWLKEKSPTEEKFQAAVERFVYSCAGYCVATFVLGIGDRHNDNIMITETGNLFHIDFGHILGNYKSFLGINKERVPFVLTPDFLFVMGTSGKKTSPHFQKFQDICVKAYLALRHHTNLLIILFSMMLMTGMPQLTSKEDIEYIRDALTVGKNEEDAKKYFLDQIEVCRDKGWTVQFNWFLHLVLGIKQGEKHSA

Row | IC50 [1] [nM] | IC50 (read-out: IC50 value) [nM] | SMILES
1 | < 100 | – | CC(=O)Nc1nc(C)c(-c2nc(-c3cccnc3)no2)s1 [Example 1, N-{4-methyl-5-[3-(pyridin-3-yl)-1,2,4-oxadiazol-5-yl]-1,3-thiazol-2-yl}acetamide]
2 | < 100 | – | CC(=O)Nc1nc(C)c(-c2nc(C(C)(C)C)no2)s1 [Example 2, N-[5-(3-tert-butyl-1,2,4-oxadiazol-5-yl)-4-methyl-1,3-thiazol-2-yl]acetamide]
3 | < 100 | – | CC(=O)Nc1nc(C)c(-c2nc(-c3cncnc3)no2)s1 [Example 3, N-{4-methyl-5-[3-(pyrimidin-5-yl)-1,2,4-oxadiazol-5-yl]-1,3-thiazol-2-yl}acetamide]
4 | < 100 | – | COc1ccc(-c2noc(-c3sc(NC(C)=O)nc3C)n2)cn1 [Example 4]
5 | 500 to 10000 | 7230 | CC(=O)Nc1nc(C)c(-c2nc(-c3ccc(OCc4cccnc4)nc3)no2)s1 [Example 5]
6 | < 100 | – | CC(=O)Nc1nc(C)c(-c2nc(-c3cccnc3C)no2)s1 [Example 6]
7 | < 100 | – | CC(=O)Nc1nc(C)c(-c2nc(-c3ccccc3)no2)s1 [Example 7]
8 | 500 to 10000 | – | CC(=O)Nc1nc(C)c(-c2nc(Cc3cccnc3)no2)s1 [Example 8]
9 | < 100 | – | CC(=O)Nc1nc(C)c(-c2nc(C3CCCCC3)no2)s1 [Example 9]
10 | 100 to 500 | – | CC(=O)Nc1nc(C)c(-c2nc(-c3ccccn3)no2)s1 [Example 10]
11 | 500 to 10000 | – | CC(=O)Nc1nc(C)c(-c2nc(-c3ccncc3)no2)s1 [Example 11]
12 | 100 to 500 | – | CC(=O)Nc1nc(C)c(-c2nc(CCc3cccnc3)no2)s1 [Example 12]
13 | 100 to 500 | – | CC(=O)Nc1nc(C)c(-c2nc(CCO)no2)s1 [Example 13]
14 | < 100 | – | CC(=O)Nc1nc(C)c(-c2nc(-c3cnccc3C)no2)s1 [Example 14]
15 | < 100 | – | CC(=O)Nc1nc(C)c(-c2nc(-c3cncc(C)c3)no2)s1 [Example 15]
16 | < 100 | – | COc1ncccc1-c1noc(-c2sc(NC(C)=O)nc2C)n1 [Example 16]
17 | < 100 | – | CC(=O)Nc1nc(C)c(-c2nc(-c3ccc(C)nc3)no2)s1 [Example 17]
18 | < 100 | – | CC(=O)Nc1nc(C)c(-c2nc(C3CCCC3)no2)s1 [Example 18]
19 | < 100 | – | CC(=O)Nc1nc(C)c(-c2nc(CC(F)(F)F)no2)s1 [Example 19]
20 | < 100 | – | CC(=O)Nc1nc(C)c(-c2nc(CC(C)C)no2)s1 [Example 20]
21 | < 100 | – | CC(=O)Nc1nc(C)c(-c2nc(-c3cccc(CO)c3)no2)s1 [Example 21]
22 | 100 to 500 | – | COCCc1noc(-c2sc(NC(C)=O)nc2C)n1 [Example 22]
23 | < 100 | – | CC(=O)Nc1nc(C)c(-c2nc(-c3cnccn3)no2)s1 [Example 23]
24 | < 100 | – | CC(=O)Nc1nc(C)c(-c2nc(CS(C)(=O)=O)no2)s1 [Example 24]
25 | < 100 | – | CC(=O)Nc1nc(C)c(-c2nc(-c3ccc(CO)cc3)no2)s1 [Example 25]

Row | IC50 [1] [nM] | IC50 (read-out: IC50 value) [nM] | SMILES
26 | < 100 | – | CC(=O)Nc1nc(C)c(-c2nc(C3CCC3)no2)s1 [Example 26]
27 | < 100 | – | CC(=O)Nc1nc(C)c(-c2nc(-c3cccc(O)c3)no2)s1 [Example 27]
28 | < 100 | – | CC(=O)Nc1nc(C)c(-c2nc(-c3cccc(CCO)c3)no2)s1 [Example 28]
29 | < 100 | – | CC(=O)Nc1nc(C)c(-c2nc(-c3ccccc3CO)no2)s1 [Example 29]
30 | 500 to 10000 | – | CC(=O)Nc1nc(C)c(-c2nc(CCCOC(C)=O)no2)s1 [Example 30]
31 | < 100 | – | CC(=O)Nc1nc(C)c(-c2nc(CC(C)(C)CO)no2)s1 [Example 31, N-{5-[3-(3-hydroxy-2,2-dimethylpropyl)-1,2,4-oxadiazol-5-yl]-4-methyl-1,3-thiazol-2-yl}acetamide]
32 | < 100 | – | CC(=O)Nc1nc(C)c(-c2nc(-c3cncc(O)c3)no2)s1 [Example 32]
33 | 100 to 500 | – | CC(=O)Nc1nc(C)c(-c2nc(CCCO)no2)s1 [Example 33]
34 | < 100 | – | CC(=O)Nc1nc(C)c(-c2nc(CC(C)(C)O)no2)s1 [Example 34]
35 | 100 to 500 | – | C=Cc1noc(-c2sc(NC(C)=O)nc2C)n1 [Example 35]
36 | 500 to 10000 | – | CC(=O)Nc1nc(C)c(-c2nc(Cc3cccc(CO)c3)no2)s1 [Example 36]
37 | < 100 | – | COC(=O)c1cncc(-c2noc(-c3sc(NC(C)=O)nc3C)n2)c1 [Example 37]
38 | 100 to 500 | – | CC(=O)Nc1nc(C)c(-c2nc(CC(C)O)no2)s1 (centres unmarked) [Example 38]
39 | 100 to 500 | – | CC(=O)Nc1nc(C)c(-c2nc(-c3ccc(=O)n(C)c3)no2)s1 [Example 39]
40 | 100 to 500 | – | CC(=O)Nc1nc(C)c(-c2nc(-c3ccc(=O)[nH]c3)no2)s1 [Example 40]
41 | < 100 | – | CC(=O)Nc1nc(C)c(-c2nc(CC3(C)COC3)no2)s1 [Example 41]
42 | < 100 | – | CC(=O)Nc1nc(C)c(-c2nc(CC(C)(CO)CO)no2)s1 [Example 42]
43 | 500 to 10000 | – | CC(=O)Nc1nc(C)c(-c2nc(CC(C)(C)CN)no2)s1 [Example 43]
44 | < 100 | – | CC(=O)Nc1nc(C)c(-c2nc(CC(C)(C)CNS(C)(=O)=O)no2)s1 [Example 44]
45 | 100 to 500 | – | CC(=O)Nc1nc(C)c(-c2nc(CC3CCOCC3)no2)s1 [Example 45]
46 | < 100 | – | CCC(CC)(CO)Cc1noc(-c2sc(NC(C)=O)nc2C)n1 [Example 46]
47 | 100 to 500 | – | CC(=O)Nc1nc(C)c(-c2nc(CCC(C)(C)O)no2)s1 [Example 47]
48 | < 100 | – | CC(=O)Nc1nc(C)c(-c2nc(CC3(CO)CC3)no2)s1 [Example 48]
49 | 100 to 500 | – | CC(=O)Nc1nc(C)c(-c2nc(Cc3cccc(O)c3)no2)s1 [Example 49]
50 | 100 to 500 | – | COCc1noc(-c2sc(NC(C)=O)nc2C)n1 [Example 50]

Row | IC50 [1] [nM] | IC50 (read-out: IC50 value) [nM] | SMILES
51 | < 100 | – | COCC(C)(C)Cc1noc(-c2sc(NC(C)=O)nc2C)n1 [Example 51]
52 | 500 to 10000 | – | COC(Cc1noc(-c2sc(NC(C)=O)nc2C)n1)OC [Example 52]
53 | < 100 | – | CC(=O)Nc1nc(C)c(-c2nc(C3CCOCC3)no2)s1 [Example 54]
54 | 100 to 500 | – | CCOC(=O)c1noc(-c2sc(NC(C)=O)nc2C)n1 [Example 55, Ethyl-5-[2-(acetylamino)-4-methyl-1,3-thiazol-5-yl]-1,2,4-oxadiazol-3-carboxylate]
55 | 100 to 500 | – | CC(=O)Nc1nc(C)c(-c2nc(CC3(CO)COC3)no2)s1 [Example 57]
56 | 500 to 10000 | – | CCOC(C)(OCC)c1noc(-c2sc(NC(C)=O)nc2C)n1 [Example 58]
57 | 500 to 10000 | – | CC(=O)Nc1nc(C)c(-c2nc(CCCCOC(C)=O)no2)s1 [Example 59]
58 | < 100 | – | CC(=O)Nc1nc(C)c(-c2nc(C(C)=O)no2)s1 [Example 60]
59 | 100 to 500 | – | CC(=O)Nc1nc(C)c(-c2nc(CCCCO)no2)s1 [Example 61]
60 | < 100 | – | CC(=O)Nc1nc(C)c(-c2nc(C[C@H](C)CO)no2)s1 [Example 62]
61 | < 100 | – | CC(=O)Nc1nc(C)c(-c2nc(C3CCOC3)no2)s1 (centres unmarked) [Example 63]
62 | < 100 | – | CC(=O)Nc1nc(C)c(-c2nc(C(C)(C)O)no2)s1 [Example 64]
63 | < 100 | – | CC(=O)Nc1nc(C)c(-c2nc(C(C)(C)CO)no2)s1 [Example 65]
64 | 100 to 500 | – | CC(=O)CCc1noc(-c2sc(NC(C)=O)nc2C)n1 [Example 66]
65 | 100 to 500 | 428 | CC(=O)Nc1nc(C)c(-c2nc(CC(O)CC(F)(F)F)no2)s1 (centres unmarked) [Example 67]
66 | < 100 | – | CC(=O)Nc1nc(C)c(-c2nc(CC(C)(C)C)no2)s1 [Example 68]
67 | < 100 | – | CC(=O)Nc1nc(C)c(-c2nc([C@H](O)C(C)(C)C)no2)s1 [Example 69]
68 | 100 to 500 | – | CC(=O)Nc1nc(C)c(-c2nc(C(N)=O)no2)s1 [Example 70]
69 | 100 to 500 | – | COC(=O)CCc1noc(-c2sc(NC(C)=O)nc2C)n1 [Example 71]
70 | 500 to 10000 | – | CC(=O)Nc1nc(C)c(-c2nc(C(=O)N3CCOCC3)no2)s1 [Example 72, N-{4-methyl-5-[3-(morpholin-4-ylcarbonyl)-1,2,4-oxadiazol-5-yl]-1,3-thiazol-2-yl}acetamide]
71 | < 100 | – | CC(=O)Nc1nc(C)c(-c2nc(C(C)(C)CCO)no2)s1 [Example 73]
72 | 500 to 10000 | – | CC(=O)Nc1nc(C)c(-c2nc(C(C)NC(=O)OC(C)(C)C)no2)s1 (centres unmarked) [Example 74]
73 | 500 to 10000 | – | CC(=O)Nc1nc(C)c(-c2nc(CN3CCOCC3)no2)s1 [Example 75]
74 | 100 to 500 | – | CC(=O)Nc1nc(C)c(-c2nc(CC(C)(C)COS(C)(=O)=O)no2)s1 [Example 76]
75 | 500 to 10000 | – | CC(=O)Nc1nc(C)c(-c2nc(C(C)NC(C)=O)no2)s1 (centres unmarked) [Example 77]
